Data taken from patent US20210100242A1, “FORMULATIONS FOR CONTROL AND REPELLENCY OF BITING ARTHROPODS” (BEDOUKIAN RESEARCH, INC., priority 2019, published 2021).

The molecules below were run on Adult female Aedes aegypti (assay: Membrane feeder repellency test: mosquitoes probing treated collagen membranes over blood-filled wells). Conditions: Total repellent 0.30%.
Format: in vivo
Experimental: Adult female Aedes aegypti were obtained from the i2LResearch USA, Inc. colony. Two hundred fifty (250) mosquitoes were used per replicate (seven replicates). Mosquitoes were at least 6 days old and had been deprived of sucrose solution for at least 18 hours prior to testing.
An exposure container was used to present the mosquitoes with a choice of blood-filled wells that were covered with collagen membranes (3 cm in diameter). The collagen membranes were treated by pipetting 6.25 μl of the test treatment onto the appropriate membrane and spreading it evenly with the tip of the pipette.
Exposure container. A 30.5 cm×30.5 cm×30.5 cm container (rigid plastic frame and a sleeved entry on one side and a sliding trap door on the bottom). The container was supported by four (4 cm high) legs.
Membrane feeder. Five wells (3 cm in diameter x 8 mm in depth) in line on a hollow plastic block (6 cm wide x 22 cm long x 3 cm deep). The plastic block fit into the bottom of the exposure container. Hoses mounted on either end of the membrane feeder carried warm water that was pumped from a water bath. The sliding plastic trap door in the bottom of the exposure container covered and uncovered the wells in the membrane feeder, allowing mosquitoes to access the blood-filled wells that were covered with treated collagen membranes.
Study set-up. The membrane feeder was connected to a heated water bath, and warm water passed through the feeder via a circulating pump so that the wells were warmed to 96-100° F. Seventy-two (72) mg of ATP (disodium salt) were added to 26 ml of bovine blood. Sodium citrate was also added to the blood during collection to prevent clotting. The blood was poured into the wells until it completely filled each well (meniscus slightly above the level of the well).
Circular pieces (3 cm in diameter) of collagen membrane were placed over each of the wells. […]
Treatment and exposure to mosquitoes. […] The number of mosquitoes probing the membrane covering each well was recorded every two minutes for twenty minutes. […]

Going from `CCN(CC)C(=O)c1cccc(C)c1` [DEET, N,N-diethyl-m-toluamide, reference compound] to `CCNC(=O)C1CC(C)CCC1C(C)C` (stereo not drawn) [WS3, N-ethyl-p-menthane-3-carboxamide], the “Test result, percentage relative to 0.3 wt % DEET in the same test” value rises from 100.0% to 130.0%.

`CC1CCC(C(C)(C)O)C(O)C1` (stereo not drawn) [PMD, para-menthane-3,8-diol, reference compound] was tested, and the “Test result, percentage relative to 0.3 wt % DEET in the same test” value was 84.6%.
